The values below come from patent US20050288316A1, “Beta-carbolines as growth hormone secretagogue receptor (GHSR) antagonists” (priority 2003, published 2005).

The melting point is the temperature of the solid-liquid transition. One may read the pKi as −log10 of the Ki, conventionally taken in molar units.

Molecules are shown by their SMILES. pKi: −log10 of the molar value. Some results are limits rather than exact numbers.

One data set addresses T1, human GHSR (Homo sapiens, UniProt Q92847).
T1 construct: host or cells: Chinese hamster ovary (CHO) cells
Kind of data set: Functional FLIPR assay: inhibition of the ghrelin-evoked peak response in CHO cells stably expressing human GHSR (IC50, functional Ki). It is filed as cell-based. To be noted: functional Ki calculated from IC50 by Cheng-Prusoff equation, Fluo-4AM, ghrelin at EC70. The method, then:
Chinese hamster ovary cells (CHO), cell line (ES-410-F) purchased from Euroscreen, stably expressing the human GHSR seeded in 96 well plates are pre-loaded with Fluo-4AM fluorescent dye for 60 min before addition of test compounds (5 μM for primary screen). Fluorescent intensity is recorded using a Fluorometric imaging plate reader (FLIPR 98R 96-well format, Molecular Devices) and inhibition of the peak response evoked by ghrelin (EC70 concentration) is calculated.
Potency (IC50) determinations are performed utilizing the same functional assay as described for primary screening, applying the compounds in the concentration range of 170 pM to 10 μM or 340 pM to 20 μM.
The calculation of the functional Ki values for the inhibitors was performed by use of Activity Base. The Ki value is calculated from IC50 using the Cheng Prushoff equation (with reversible inhibition that follows the Michaelis-Menten equation): […] [Cheng, Y. C.; Prushoff, W. H. Biochem. Pharmacol. 1973, 22, 3099-3108]. […]

T1 sequence (Q92847 whole entry): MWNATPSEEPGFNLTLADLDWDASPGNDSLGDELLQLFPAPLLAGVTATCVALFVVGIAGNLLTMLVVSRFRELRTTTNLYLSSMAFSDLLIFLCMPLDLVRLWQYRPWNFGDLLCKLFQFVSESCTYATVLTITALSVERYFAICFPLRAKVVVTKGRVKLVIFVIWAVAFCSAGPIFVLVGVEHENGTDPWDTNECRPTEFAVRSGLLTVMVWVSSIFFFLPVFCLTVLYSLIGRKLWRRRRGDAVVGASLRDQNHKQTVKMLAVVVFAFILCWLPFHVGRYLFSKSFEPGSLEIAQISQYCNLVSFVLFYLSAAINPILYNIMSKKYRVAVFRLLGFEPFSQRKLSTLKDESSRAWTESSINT

Take `COc1ccc2[nH]c3c(c2c1)CCNC31CCNC1` (stereo not drawn) [Comparative Example 1, 6-Methoxy-2,3,4,9-tetrahydrospiro[beta-carboline-1,3′-pyrrolidine]]: the melting point is above 180 °C.
Turning to `COc1ccc2[nH]c3c(c2c1)CCNC31CCN(CCOc2ccccc2)C1` (stereo not drawn) [Example 10, 6-Methoxy-1′-(2-phenoxyethyl)-2,3,4,9-tetrahydrospiro[beta-carboline-1,3′-pyrrolidine]], on human GHSR, the negative logarithm of the Ki (pKi) was 7.22.
Same read-out and setting: the result for `Fc1ccc2c3c([nH]c2c1)C1(CCN(CCOc2ccccc2)C1)NCC3` (stereo not drawn) [Example 11, 7-Fluoro-1′-(2-phenoxyethyl)-2,3,4,9-tetrahydrospiro[beta-carboline-1,3′-pyrrolidine]] reads 6.24; that for `CCCCNC(=O)N1CCc2c([nH]c3ccc(OC)cc23)C12CCN(CCOc1ccccc1)C2` (stereo not drawn) [Example 30, N-Butyl-6-methoxy-1′-(2-phenoxyethyl)-4,9-dihydrospiro[beta-carboline-1,3′-pyrrolidine]-2(3H)-carboxamide], 7.23.
